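Cells were grown in 96-well plates and exposed to each compound for 48 hours at five concentrations; endpoints were interpolated linearly between bracketing concentrations, or set to the highest concentration if not reached. GI50 is the concentration that inhibits growth by half. TGI: concentration producing complete growth inhibition.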
Columns and labels:
Experiment in all cases: inhibition of tumour cell growth, NCI panel, 48 h
SK-MEL-28 melanoma = system: SK-MEL-28 melanoma
UACC-257 melanoma = system: UACC-257 melanoma
MALME-3M melanoma = system: MALME-3M melanoma
SR leukemia = system: SR leukemia
NCI/ADR-RES ovarian = system: NCI/ADR-RES ovarian
HT29 colon = system: HT29 colon
HL-60(TB) leukemia = system: HL-60(TB) leukemia
SK-MEL-2 melanoma = system: SK-MEL-2 melanoma
IGROV1 ovarian = system: IGROV1 ovarian
SNB-75 CNS = system: SNB-75 CNS

Compound	TGI (SK-MEL-28 melanoma)	TGI (UACC-257 melanoma)	TGI (MALME-3M melanoma)	TGI (SR leukemia)	TGI (NCI/ADR-RES ovarian)	TGI (HT29 colon)	TGI (HL-60(TB) leukemia)	TGI (SK-MEL-2 melanoma)	TGI (IGROV1 ovarian)	TGI (SNB-75 CNS)	GI50 (SK-MEL-28 melanoma)	GI50 (UACC-257 melanoma)	GI50 (MALME-3M melanoma)	GI50 (SR leukemia)	GI50 (NCI/ADR-RES ovarian)	GI50 (HT29 colon)	GI50 (HL-60(TB) leukemia)	GI50 (SK-MEL-2 melanoma)	GI50 (IGROV1 ovarian)	GI50 (SNB-75 CNS)
C=C1C(=O)O[C@@H]2C(=O)[C@@H](C)[C@@H]3C=CC(=O)[C@@]3(C)[C@@H](OC(=O)/C(C)=C\C)[C@H]12	1.01 µM	4.65 µM	0.948 µM	0.712 µM	7.28 µM	1.36 µM	0.415 µM	9.89 µM	3.28 µM	19.9 µM										
CCN(CC)CCOc1ccc(/C(=C(\C)Cc2ccc(OC)cc2)c2ccc(OC(=O)NCc3ccccc3)cc2)cc1	3.44 µM	4.2 µM	3.3 µM	4.31 µM	11.8 µM	4.29 µM	2.97 µM	4.9 µM	6.11 µM	8.48 µM	1.82 µM	2.04 µM	1.72 µM	1.99 µM	3.18 µM	1.89 µM	1.3 µM	2.16 µM	2.46 µM	2.42 µM
CN1CCC[C@@H]1CCO[C@](C)(c1ccccc1)c1ccc(Cl)cc1	4.36 µM	4.17 µM	4.85 µM	9.59 µM	21.7 µM	11.3 µM	18 µM	16.2 µM	18.1 µM	12.7 µM	2 µM	1.9 µM	1.79 µM	2.32 µM	7.55 µM	3.06 µM	4.03 µM	5 µM	4.16 µM	2.29 µM
CCOC(=O)c1c(C)nc2ccc(Cl)cc2c1-c1ccccc1	52.4 µM	83.1 µM	42.3 µM	48.5 µM	80.2 µM	75.3 µM	41 µM	34.1 µM	61.1 µM	64.9 µM	19.6 µM	25.5 µM	17.6 µM	18.4 µM	22.2 µM	16.1 µM	14.2 µM	15 µM	16.6 µM	21.8 µM
CCOC(=O)c1ccc(N(CCOS(C)(=O)=O)CCOS(C)(=O)=O)cc1C	> 100 µM	> 100 µM	> 100 µM	> 100 µM	66.9 µM	> 100 µM	51.2 µM	67.5 µM	> 100 µM	87.1 µM	> 100 µM	69.6 µM	29 µM	2.83 µM	23.7 µM	26.3 µM	8.08 µM	28.6 µM	91.4 µM	34.5 µM
O=C(Nc1nccs1)c1cc2c(cc1Cl)Sc1nccn1S2(=O)=O	37.6 µM	26.9 µM	37.2 µM	11.9 µM	44.7 µM	46.7 µM	31.2 µM	33.1 µM	29.8 µM	35.4 µM	20 µM	13.9 µM	20 µM	3 µM	18.9 µM	19.8 µM	13.6 µM	17.4 µM	11.7 µM	18.8 µM
Cn1cccc1-c1cc(-c2cccs2)[nH]c(=O)c1C#N	> 100 µM	> 100 µM	> 100 µM	> 100 µM	> 100 µM	> 100 µM		> 100 µM	> 100 µM	> 100 µM	> 100 µM	> 100 µM	> 100 µM	> 100 µM	> 100 µM	> 100 µM		> 100 µM	23 µM	37.7 µM
O=C1/C(=C\C(Cl)=C/c2ccc([N+](=O)[O-])cc2)SC(=S)N1CCc1ccc(O)cc1	1.96 µM	4.28 µM	2.48 µM		1.78 µM	2.28 µM	6.63 µM	4.37 µM	1.68 µM	2.35 µM	0.626 µM	1.65 µM	1.05 µM	0.327 µM	0.342 µM	0.429 µM	0.341 µM	2.01 µM	0.512 µM	1.08 µM
COc1ccc(-c2nn(-c3cccc(NC(=O)Nc4ccc(Cl)c(C(F)(F)F)c4)c3)cc2-c2ccncc2)cc1Cl	13.3 µM	7.42 µM	7.58 µM	5.65 µM	9.84 µM	13.1 µM		5.71 µM	29.5 µM	9.56 µM	3.08 µM	2.44 µM	2.27 µM	1.82 µM	2.62 µM	3.18 µM		2.77 µM	3.65 µM	1.91 µM
Cc1cccc2c(N=Nc3ccc(S(N)(=O)=O)cc3)c(O)[nH]c12	> 25 µM	> 25 µM	> 25 µM	> 25 µM	> 25 µM	> 25 µM	> 25 µM	> 25 µM	> 25 µM	> 25 µM	> 25 µM	> 25 µM	> 25 µM	> 25 µM	> 25 µM	> 25 µM	> 25 µM	> 25 µM	> 25 µM	> 25 µM
O=C1C(=O)c2ccccc2-c2ccccc21	3.24 µM	3.07 µM	3.31 µM	7.82 µM	2.9 µM	> 100 µM	4.11 µM	4.79 µM	3.75 µM	2.9 µM	1.77 µM	1.52 µM	1.79 µM	0.555 µM	0.543 µM	3.4 µM	1.56 µM	2.02 µM	2.07 µM	1.51 µM
CN[C@]12CC3(C=CC(=O)C=C3)O[C@@]1(Cc1ccc(OC)cc1)N(C)C(=O)N2	6.75 µM	19.8 µM	7.85 µM	20.1 µM	> 100 µM	6.28 µM	6.49 µM	10.9 µM	4.1 µM	23.3 µM	2.53 µM	3.52 µM	2.69 µM	1.15 µM	3.46 µM	1.63 µM	1.84 µM	2.96 µM	1.78 µM	10.4 µM
COc1ccc(-c2cnc3ccnn3c2-c2cc(OC)c(OC)c(OC)c2)cc1	> 100 µM	> 100 µM	> 100 µM	> 100 µM	> 100 µM	> 100 µM	7.16 µM	> 100 µM	> 100 µM	62.7 µM	10 µM	91.6 µM	5.41 µM	1.66 µM	2.89 µM	3.01 µM	2.3 µM	3.94 µM	5.25 µM	2.2 µM
Cc1ccc(S(=O)(=O)/N=c2\ssc(Nc3ccccc3)c2Cl)cc1		30.3 µM		25.1 µM	27.6 µM	> 50 µM	> 50 µM	> 50 µM	> 50 µM			9.86 µM		9.06 µM	10.1 µM	17.2 µM	15.5 µM	18.3 µM	30.9 µM	
c1cc(OCCN2CCCCCC2)ccc1CNc1ccc2nc(CCC3CCCCC3)[nH]c2c1		4.12 µM	3.1 µM	5.34 µM	8.66 µM	3.49 µM	3.8 µM	3.63 µM	7.31 µM	4.52 µM		1.94 µM	1.64 µM	1.73 µM	2.64 µM	1.3 µM	1.76 µM	1.88 µM	2.04 µM	1.5 µM
O=C(O)c1ccc2c(c1Nc1ccccc1)C(=O)c1ccccc1C2=O	> 100 µM	> 100 µM	> 100 µM	> 100 µM	> 100 µM	> 100 µM	> 100 µM	> 100 µM	> 100 µM	> 100 µM	> 100 µM	54.8 µM	54.6 µM	41 µM	52.3 µM	98.4 µM	79.3 µM	51.7 µM	16.2 µM	46.7 µM
O=c1cc(-c2ccc(Cl)cc2)[nH]c2ncccc12	> 100 µM	> 100 µM	> 100 µM	37.5 µM	> 100 µM	> 100 µM	41.6 µM	> 100 µM	> 100 µM	> 100 µM							16.6 µM			
ClCc1ccc(-c2ccc(Cn3cnc4c(Cl)nc(Cl)nc43)cc2)cc1	3.1 µM	3.64 µM	23.8 µM	6.43 µM	7.55 µM	3.31 µM	> 100 µM	3.42 µM	2.28 µM	7.81 µM	1.65 µM	1.5 µM	7.06 µM	1.9 µM	2.5 µM	1.72 µM	3.25 µM	1.88 µM	0.885 µM	2.63 µM
O=C1N=C(c2ccccc2)OC1C(=O)c1ccccc1 (configuration not stated)	> 100 µM	> 100 µM		> 100 µM	> 100 µM	> 100 µM	> 100 µM	> 100 µM	> 100 µM	> 100 µM										
COc1ccc(N(CC(=O)NCCC[Te]c2ccccc2)C(=O)CCSC2=C(C)C(=O)c3ccccc3C2=O)cc1	5.87 µM	6.51 µM	4.51 µM	> 100 µM	6.16 µM	7.03 µM	> 26.1 µM	5.49 µM	2.35 µM	7.64 µM	2.48 µM	2.56 µM	2.25 µM	0.498 µM	1.46 µM	1.95 µM	2.97 µM	2.31 µM	0.888 µM	1.17 µM
COc1cc(/C=C/C(=O)c2ccc(Nc3ncnc4ccccc34)cc2)cc(OC)c1	34.4 µM	34.1 µM	> 100 µM	3.17 µM	> 100 µM	4.05 µM	30.4 µM	57.7 µM	60.2 µM	> 100 µM	15.4 µM	9.7 µM	23.8 µM	0.556 µM	6.52 µM	2.07 µM	3.74 µM	16.2 µM	13.5 µM	24.1 µM
S=c1nc2[nH]ncc2c(N/N=C/c2ccccc2)[nH]1	> 100 µM	> 100 µM	> 100 µM	> 100 µM	> 100 µM		> 100 µM	> 100 µM	> 100 µM	> 100 µM	> 100 µM	> 100 µM	> 100 µM	> 100 µM	> 100 µM		> 100 µM	> 100 µM	45.4 µM	> 100 µM
C=C1C(=O)O[C@H]2[C@H]1CC/C(Cn1cc(Cn3ccc4ccccc43)nn1)=C\CC[C@@]1(C)O[C@@H]21	3.25 µM	4.41 µM	3.34 µM	3.71 µM	21.6 µM	3.27 µM	3.79 µM	3.96 µM	3.61 µM	15.6 µM	1.67 µM	2.04 µM	1.59 µM	0.345 µM	5.07 µM	1.7 µM	1.2 µM	1.73 µM	1.86 µM	2.61 µM
Cc1cc(C)c(O)c(Cc2cccc(Cc3cc(C)cc(C)c3O)c2O)c1	> 100 µM	> 100 µM	> 100 µM	> 100 µM	> 100 µM	> 100 µM		> 100 µM	> 100 µM	> 100 µM										
O=C(Nc1ccccc1)Nc1cccc(-n2cc(-c3ccncc3)c(-c3ccc(O)c(Cl)c3)n2)c1	18.6 µM	4.91 µM	6.02 µM	6.29 µM	82.6 µM	4.45 µM	5.36 µM	5.63 µM	41.4 µM	10.7 µM	3.27 µM	2.12 µM	2.25 µM	2.35 µM	6.49 µM	2.27 µM	2.32 µM	2.49 µM	6.06 µM	1.68 µM
CCOC(=O)c1c(-c2ccccc2)[n+](=O)c2ccc(Cl)cc2n1[O-]	52.7 µM	16.6 µM		11 µM	18.1 µM	23 µM	20.3 µM	> 100 µM	16.5 µM	18.8 µM	18 µM	4.06 µM		2.59 µM	5.27 µM	11 µM	5.66 µM	40 µM	3.93 µM	3.18 µM

From PubChem BioAssay (NCI)
